Where a SMILES comes first, the peptide text is derived from it. Bridges are numbered along the chain shown (N, C = ends). [ ]: non-standard residue; d: D form. The star is where a group is joined. ξ: configuration not given here. d1Nal = N[C@H](Cc1cccc2ccccc12)C(=O)O; Nle = CCCC[C@H](N)C(=O)O; Dab = NCC[C@H](N)C(=O)O; ξHyp = O=C(O)C1CC(O)CN1; Dap = NC[C@H](N)C(=O)O; Hexanoyl = CCCCCC(=O)*; Ava = NCCCCC(=O)O; Bn = c1ccc(C*)cc1; βAla = NCCC(=O)O
Key:
Format in all cases: cell-based
mMC1r [1] = target: T1, mMC1r (Mus musculus, UniProt Q01727); experiment: cAMP agonist activity assay performed at CEREP (HTRF), MC1; conditions: determined by CEREP, B16-F1 cells; for EC50: cAMP HTRF; for Emax: control NDP-alpha-MSH, read-out: Emax percent mMC1r* (percent of the maximal response obtained with the positive control)
Procedure: (§1) Evaluation of the agonist activity of compounds at the melanocortin receptors was determined by measuring their effects on cAMP production using the HTRF detection method at CEREP (Eurofins CEREP SA, Celle-Lévescault, France). The cells were suspended in HBSS buffer (Invitrogen) complemented with 20 mM HEPES (pH 7.4) and 500 μM IBMX, then distributed in microplates and incubated in the presence of HBSS (basal control), the test compound or the reference agonist. Incubation time, temperature, cell number, reference agonist and cell line information are included in the Table 1 below. For stimulated control measurement, separate assay wells contain reference compound. Following incubation, the cells are lysed and the fluorescence acceptor (D2-labeled cAMP) and fluorescence donor (anti-cAMP antibody labeled with europium cryptate) were added. After 60 minutes at room temperature, the fluorescence transfer was measured at excitation wavelength 337 nm and emission wavelengths 620 and 665 nm using a microplate reader (Envision, Perkin Elmer). The cAMP concentration was determined by dividing the signal measured at 665 nm by that measured at 620 nm (ratio).
(§2) The results are expressed as a percent of the control response to 1 μM of the reference. The standard reference agonist is tested in each experiment at several concentrations to generate a concentration-response curve from which its EC50 value is calculated.

hMC5r [2] = target: T2, hMC5r (Homo sapiens, UniProt P33032); experiment: cAMP agonist activity assay performed at CEREP (HTRF), MC5; conditions: determined by CEREP, CHO-K1 cells; for EC50: cAMP HTRF; for Emax: control Alpha-MSH, read-out: Emax percent hMC5r* (percent of the maximal response obtained with the positive control)
T2 construct: Eurofins CEREP SA
Procedure: as §1, §2

hMC3r [3] = target: T3, hMC3r (Homo sapiens, UniProt P41968); experiment: cAMP agonist activity assay performed at CEREP (HTRF), MC3; design: expressed in transfected cells; conditions: determined by CEREP, CHO-K1 cells
Procedure: as §1
(§3) The results are expressed as a percent of the control response to 1 μM of the reference. […]

hMC4r [4] = target: T4, hMC4r (Homo sapiens, UniProt P32245); experiment: cAMP agonist activity assay performed at CEREP (HTRF), MC4; design: expressed in transfected cells; conditions: determined by CEREP, CHO-K1 cells
Procedure: as §1, §3

hMC3r [5] = target: T3, hMC3r; experiment: Alternative assay for agonist activity (intracellular cAMP), HEK-293 cells, recombinant MC3r; design: expressed in transfected cells; host or cells: HEK-293; conditions: for Emax: HEK293, not CEREP, reference NDP-α-MSH, read-out: Emax percent hMC3r (percent of the maximal response obtained with the positive control); for EC50: not CEREP, cAMP HTRF
Procedure: (§4) Accumulation of intracellular cAMP was examined as a measure of the ability of the peptides to elicit a functional response in either HEK-293 cells that express recombinant MC3r or MC4r or B16-F10 (mouse) and HBL (human) cell lines that express native MC1 r. Confluent cells were detached from culture plates by incubation in enzyme-free cell dissociation buffer. Dispersed cells were suspended in Hank's Balanced Salt Solution containing 10 mM HEPES (pH 7.5), 1 mM MgCl2, 1 mM glutamine, 0.5% albumin and 0.3 mM 3-isobutyl-1-methyl-xanthine (IBMX), a phosphodiesterase inhibitor. The cells were dispensed into 96-well plates at a density of 0.5×10^5 cells per well and pre-incubated for 10 minutes. Cells were exposed for 15 minutes at 37° C. to peptides dissolved in DMSO (final DMSO concentration of 1%) at a concentration range of 0.05-5000 nM in a total assay volume of 200 μL. NDP-α-MSH was used as the reference agonist. cAMP levels were determined by an HTRF® cAMP cell-based assay system from Cisbio Bioassays utilizing cryptate-labeled anti-cAMP and D2-labeled cAMP, with plates read on a Perkin-Elmer Victor plate reader at […]. Data analysis was performed by nonlinear regression analysis with Graph-Pad Prism® software. The maximum efficacies of the test peptides were compared to that achieved by the reference melanocortin agonist NDP-α-MSH.

hMC4r [6] = target: T4, hMC4r; experiment: Alternative assay for agonist activity (intracellular cAMP), HEK-293 cells, recombinant MC4r; design: expressed in transfected cells; host or cells: HEK-293; conditions: for Emax: HEK293, not CEREP, reference NDP-α-MSH, read-out: Emax percent hMC4r (percent of the maximal response obtained with the positive control); for EC50: not CEREP, cAMP HTRF
Procedure: as §4

mMC1r [7] = target: T1, mMC1r; experiment: Alternative assay for agonist activity (intracellular cAMP), B16-F10 cells, native MC1r; design: B16-F10 (mouse) and HBL (human) cell lines that express native MC1 r; endogenous in cells; host or cells: B16-F10 mouse melanoma cells; conditions: not CEREP; for EC50: cAMP HTRF; for Emax: reference NDP-α-MSH, read-out: Emax percent mMC1r (percent of the maximal response obtained with the positive control)
Procedure: as §4

hMC5r [8] = target: T2, hMC5r; experiment: Agonist activity (EC50/Emax) at hMC5r, not determined by CEREP; conditions: for Emax: read-out: Emax percent hMC5r (percent of the maximal response obtained with the positive control)
hMC1r = target: T5, hMC1r (Homo sapiens, UniProt Q01726); experiment: Alternative assay for agonist activity (intracellular cAMP), HBL cells, native MC1r; conditions: not CEREP; for EC50: cAMP HTRF; for Emax: reference NDP-α-MSH, read-out: Emax percent hMC1r (percent of the maximal response obtained with the positive control)
T5 construct: B16-F10 (mouse) and HBL (human) cell lines that express native MC1 r; endogenous in cells; host or cells: HBL human melanoma cells
Procedure: as §4

T3 sequence (P41968 whole entry): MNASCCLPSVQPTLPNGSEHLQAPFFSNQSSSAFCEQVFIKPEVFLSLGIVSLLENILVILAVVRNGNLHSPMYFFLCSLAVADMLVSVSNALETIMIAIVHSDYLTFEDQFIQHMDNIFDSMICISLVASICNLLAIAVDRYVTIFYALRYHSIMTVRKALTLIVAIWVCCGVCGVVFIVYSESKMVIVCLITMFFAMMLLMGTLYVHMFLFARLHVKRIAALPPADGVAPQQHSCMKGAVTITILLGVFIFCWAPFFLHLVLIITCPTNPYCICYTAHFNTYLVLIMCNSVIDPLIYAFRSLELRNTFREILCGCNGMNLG
T2 sequence (P33032 whole entry): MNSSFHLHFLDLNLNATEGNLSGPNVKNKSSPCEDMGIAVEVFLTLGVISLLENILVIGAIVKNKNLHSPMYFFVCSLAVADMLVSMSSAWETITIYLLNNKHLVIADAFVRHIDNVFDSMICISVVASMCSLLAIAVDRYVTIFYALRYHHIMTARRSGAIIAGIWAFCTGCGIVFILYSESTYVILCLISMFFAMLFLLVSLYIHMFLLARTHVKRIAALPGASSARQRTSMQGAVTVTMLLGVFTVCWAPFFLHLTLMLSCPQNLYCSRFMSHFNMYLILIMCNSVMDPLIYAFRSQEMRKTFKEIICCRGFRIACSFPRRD
T4 sequence (P32245 whole entry): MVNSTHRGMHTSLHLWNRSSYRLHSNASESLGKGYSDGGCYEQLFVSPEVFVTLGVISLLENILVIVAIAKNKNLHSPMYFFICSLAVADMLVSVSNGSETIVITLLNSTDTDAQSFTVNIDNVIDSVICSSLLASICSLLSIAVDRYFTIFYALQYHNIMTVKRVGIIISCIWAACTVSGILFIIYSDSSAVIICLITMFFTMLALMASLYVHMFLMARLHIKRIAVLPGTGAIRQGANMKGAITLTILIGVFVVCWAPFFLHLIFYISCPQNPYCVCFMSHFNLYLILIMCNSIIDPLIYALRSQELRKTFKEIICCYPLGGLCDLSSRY
T1 sequence (Q01727 whole entry): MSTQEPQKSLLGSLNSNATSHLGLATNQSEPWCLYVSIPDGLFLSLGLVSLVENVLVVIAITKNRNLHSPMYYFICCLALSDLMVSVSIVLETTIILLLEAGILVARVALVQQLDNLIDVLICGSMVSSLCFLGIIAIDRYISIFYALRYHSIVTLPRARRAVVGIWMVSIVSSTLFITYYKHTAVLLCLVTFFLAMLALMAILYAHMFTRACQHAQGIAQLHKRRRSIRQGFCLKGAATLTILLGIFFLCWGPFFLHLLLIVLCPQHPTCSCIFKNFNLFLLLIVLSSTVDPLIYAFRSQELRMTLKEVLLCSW
T5 sequence (Q01726 whole entry): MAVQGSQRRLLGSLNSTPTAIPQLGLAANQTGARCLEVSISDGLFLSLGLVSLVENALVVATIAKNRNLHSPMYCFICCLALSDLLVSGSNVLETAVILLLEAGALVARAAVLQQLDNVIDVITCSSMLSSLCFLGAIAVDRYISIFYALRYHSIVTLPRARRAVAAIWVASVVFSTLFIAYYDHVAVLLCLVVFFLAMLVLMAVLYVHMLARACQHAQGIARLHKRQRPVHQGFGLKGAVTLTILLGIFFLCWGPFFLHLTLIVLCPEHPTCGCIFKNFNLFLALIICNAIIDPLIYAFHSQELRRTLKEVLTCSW

Row | Structure (SMILES) | EC50 (mMC1r [1]) [nM] | Emax (mMC1r [1]) [%] | EC50 (hMC5r [2]) [nM] | Emax (hMC5r [2]) [%] | EC50 (hMC3r [3]; cAMP HTRF) [µM] | Emax (hMC3r [3]; control NDP-alpha-MSH, read-out: Emax percent hMC3r* (percent of the maximal response obtained with the positive control)) [%] | EC50 (hMC4r [4]; cAMP HTRF) [nM] | Emax (hMC4r [4]; control NDP-alpha-MSH, read-out: Emax percent hMC4r* (percent of the maximal response obtained with the positive control)) [%] | Emax (hMC3r [5]) [%] | EC50 (hMC3r [5]) [µM] | Emax (hMC4r [6]) [%] | EC50 (hMC4r [6]) [nM] | EC50 (mMC1r [7]) [nM] | Emax (mMC1r [7]) [%] | EC50 (hMC5r [8]) [nM] | Emax (hMC5r [8]) [%] | EC50 (hMC1r) [nM] | Emax (hMC1r) [%]
1 | CCCC[C@H](NC(C)=O)C(=O)N[C@H]1CCCCNC(=O)CNC(=O)[C@H](Cc2c[nH]c3ccccc23)NC(=O)[C@H](CCCNC(=N)N)NC(=O)[C@@H](Cc2cccc3ccccc23)NC(=O)C2CC(OCc3ccccc3)CN2C1=O (some centres unmarked) [Peptide 1] (Ac-[Nle]K[ξHyp](Bn)[d1Nal]RWG; lactam 2-C) | 260 | 65 | 0.22 | 110 | > 10 | 9 | 0.82 | 50 | 12 | > 10 | 39 | 0.5 | 3 | 58 |  |  |  | 
2 | CCCC[C@H](NC(C)=O)C(=O)N[C@H]1CNC(=O)CCNC(=O)[C@H](Cc2c[nH]c3ccccc23)NC(=O)[C@H](CCCNC(=N)N)NC(=O)[C@@H](Cc2cccc3ccccc23)NC(=O)C2CC(OCc3ccccc3)CN2C1=O (some centres unmarked) [Peptide 7] (Ac-[Nle][Dap][ξHyp](Bn)[d1Nal]RW[βAla]; lactam 2-C) |  |  | 2 | 97 |  |  |  |  | 7 | > 10 | 26 | 5 | 17 | 74 | 1 | 71 |  | 
3 | CC(=O)N[C@@H](CCCNC(=N)N)C(=O)N[C@H]1CCNC(=O)CCCCNC(=O)[C@H](Cc2c[nH]c3ccccc23)NC(=O)[C@H](CCCNC(=N)N)NC(=O)[C@@H](Cc2ccccc2)NC(=O)[C@H](CC(N)=O)NC1=O [Peptide 10] (Ac-R[Dab]N[dF]RW[Ava]; lactam 2-C) |  |  | 1600 | 71 |  |  |  |  | 63 | 0.006 | 111 | 0.9 | 113 | 94 | 207 | 54 |  | 
4 | CC(=O)N[C@@H](CCCNC(=N)N)C(=O)N[C@H]1CCNC(=O)CCCCNC(=O)[C@H](Cc2c[nH]c3ccccc23)NC(=O)[C@H](CCCNC(=N)N)NC(=O)[C@@H](Cc2ccc(F)cc2)NC(=O)[C@H](Cc2c[nH]cn2)NC1=O [Peptide 16] | 0.01 | 108 | 0.71 | 60 |  |  |  |  |  |  | 102 | 0.9 |  |  | 2 | 58 | 0.6 | 106
5 | CCCCCC(=O)N[C@H]1CNC(=O)CCCCNC(=O)[C@H](CCCNC(=N)N)NC(=O)[C@@H](Cc2ccccc2)NC(=O)[C@H](Cc2c[nH]cn2)NC1=O [Peptide 19] (Hexanoyl-[Dap]H[dF]R[Ava]; lactam 1-C) | 2600 | 74 | > 10000 | 5 |  |  |  |  | 0.5 | > 10 | 70 | 4300 | 350 | 80 |  |  | 3 | 92
